Data as given in ChEMBL document CHEMBL5360571, “Design, synthesis and in vitro/in vivo anticancer activity of tranylcypromine-based triazolopyrimidine analogs as novel LSD1 inhibitors” (Eur J Med Chem, 2023).

Columns and labels:
[1] = biological target: T1, MAO-A (amine oxidase [flavin-containing] A) (Homo sapiens, UniProt P21397); assay: Inhibition of recombinant MAO-A (unknown origin) using luciferin derivative as substrate measured at 1 uM for 60 mins by plate reader analysis relative to control; conditions: probe luciferin derivative
T1 sequence (P21397 whole entry): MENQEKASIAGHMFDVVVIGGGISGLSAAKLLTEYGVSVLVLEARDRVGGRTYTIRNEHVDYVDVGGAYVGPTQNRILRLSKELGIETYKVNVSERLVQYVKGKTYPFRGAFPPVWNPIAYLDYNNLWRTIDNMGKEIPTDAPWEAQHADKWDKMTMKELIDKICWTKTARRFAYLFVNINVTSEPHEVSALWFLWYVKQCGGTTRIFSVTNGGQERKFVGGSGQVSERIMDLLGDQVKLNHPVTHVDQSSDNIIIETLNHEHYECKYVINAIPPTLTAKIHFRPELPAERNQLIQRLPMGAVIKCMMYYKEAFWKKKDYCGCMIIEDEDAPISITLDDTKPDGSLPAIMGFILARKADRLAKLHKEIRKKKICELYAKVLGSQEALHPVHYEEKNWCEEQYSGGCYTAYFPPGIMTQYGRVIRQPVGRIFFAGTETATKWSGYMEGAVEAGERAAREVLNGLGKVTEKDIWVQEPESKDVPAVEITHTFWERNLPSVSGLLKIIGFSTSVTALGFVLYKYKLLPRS

[2] = biological target: T2, MAO-B (amine oxidase [flavin-containing] B) (Homo sapiens, UniProt P27338); assay: Inhibition of recombinant MAO-B (unknown origin) using luciferin derivative as substrate measured at 1 uM for 60 mins by plate reader analysis relative to control; conditions: probe luciferin derivative
T2 sequence (P27338 whole entry): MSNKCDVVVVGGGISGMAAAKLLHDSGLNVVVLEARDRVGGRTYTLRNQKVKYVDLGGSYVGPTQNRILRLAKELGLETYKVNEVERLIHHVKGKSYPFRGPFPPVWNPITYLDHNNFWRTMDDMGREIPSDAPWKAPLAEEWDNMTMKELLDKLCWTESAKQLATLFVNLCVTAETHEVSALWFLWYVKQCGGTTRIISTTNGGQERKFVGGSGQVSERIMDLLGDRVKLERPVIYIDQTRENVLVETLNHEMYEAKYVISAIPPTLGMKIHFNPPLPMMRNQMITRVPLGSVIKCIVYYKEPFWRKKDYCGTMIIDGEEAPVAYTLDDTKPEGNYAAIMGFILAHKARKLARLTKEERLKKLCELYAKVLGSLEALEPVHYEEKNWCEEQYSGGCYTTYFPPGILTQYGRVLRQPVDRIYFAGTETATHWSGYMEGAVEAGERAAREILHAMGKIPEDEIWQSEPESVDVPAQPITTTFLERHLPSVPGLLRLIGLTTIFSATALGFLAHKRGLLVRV

[3] = system: NCI-H1650; assay: Induction of apoptosis in human NCI-H1650 cells assessed as viable cells measured at 1 uM for 24 hrs by annexin V-PI staining based flow cytometric analysis (reference value: 87.4%); type: functional; conditions: read-out: Activity
[4] = system: NCI-H1650; assay: Induction of apoptosis in human NCI-H1650 cells assessed as early apoptotic cells measured at 1 uM for 24 hrs by annexin V-PI staining based flow cytometric analysis (reference value: 11.2%); type: functional
[5] = system: NCI-H1650; assay: Induction of apoptosis in human NCI-H1650 cells assessed as late apoptotic cells measured at 1 uM for 24 hrs by annexin V-PI staining based flow cytometric analysis (reference value: 1.46%); type: functional
[6] = system: NCI-H1650; assay: Induction of apoptosis in human NCI-H1650 cells assessed as necrotic cells measured at 1 uM for 24 hrs by annexin V-PI staining based flow cytometric analysis (reference value: 0.008%); type: functional
[7] = system: NCI-H1650; assay: Induction of apoptosis in human NCI-H1650 cells assessed as viable cells measured at 2 uM for 24 hrs by annexin V-PI staining based flow cytometric analysis (reference value: 87.4%); type: functional; conditions: read-out: Activity
[8] = system: NCI-H1650; assay: Induction of apoptosis in human NCI-H1650 cells assessed as early apoptotic cells measured at 2 uM for 24 hrs by annexin V-PI staining based flow cytometric analysis (reference value: 11.2%); type: functional
[9] = system: NCI-H1650; assay: Induction of apoptosis in human NCI-H1650 cells assessed as late apoptotic cells measured at 2 uM for 24 hrs by annexin V-PI staining based flow cytometric analysis (reference value: 1.46%); type: functional
[10] = system: NCI-H1650; assay: Induction of apoptosis in human NCI-H1650 cells assessed as necrotic cells measured at 2 uM for 24 hrs by annexin V-PI staining based flow cytometric analysis (reference value: 0.008%); type: functional
[11] = system: NCI-H1650; assay: Induction of apoptosis in human NCI-H1650 cells assessed as viable cells measured at 4 uM for 24 hrs by annexin V-PI staining based flow cytometric analysis (reference value: 87.4%); type: functional; conditions: read-out: Activity
[12] = system: NCI-H1650; assay: Induction of apoptosis in human NCI-H1650 cells assessed as early apoptotic cells measured at 4 uM for 24 hrs by annexin V-PI staining based flow cytometric analysis (reference value: 11.2%); type: functional
[13] = system: NCI-H1650; assay: Induction of apoptosis in human NCI-H1650 cells assessed as late apoptotic cells measured at 4 uM for 24 hrs by annexin V-PI staining based flow cytometric analysis (reference value: 1.46%); type: functional
[14] = system: NCI-H1650; assay: Induction of apoptosis in human NCI-H1650 cells assessed as necrotic cells measured at 4 uM for 24 hrs by annexin V-PI staining based flow cytometric analysis (reference value: 0.008%); type: functional
[15] = system: NCI-H1650; assay: Induction of apoptosis in human NCI-H1650 cells assessed as apoptotic cells measured at 1 uM for 24 hrs by annexin V-PI staining based flow cytometric analysis (reference value: 12.7%); type: functional
[16] = system: NCI-H1650; assay: Induction of apoptosis in human NCI-H1650 cells assessed as apoptotic cells measured at 2 uM for 24 hrs by annexin V-PI staining based flow cytometric analysis (reference value: 12.7%); type: functional
[17] = system: NCI-H1650; assay: Induction of apoptosis in human NCI-H1650 cells assessed as apoptotic cells measured at 4 uM for 24 hrs by annexin V-PI staining based flow cytometric analysis (reference value: 12.7%); type: functional
[18] = system: NCI-H1650; assay: Induction of cell cycle arrest in human NCI-H1650 cells assessed as accumulation of cells in G1 phase measured at 1 uM for 24 hrs by annexin V-PI staining based flow cytometric analysis (reference value: 52.04%); type: functional
[19] = system: NCI-H1650; assay: Induction of cell cycle arrest in human NCI-H1650 cells assessed as accumulation of cells in G2 phase measured at 1 uM for 24 hrs by annexin V-PI staining based flow cytometric analysis (reference value: 18.00%); type: functional
[20] = system: NCI-H1650; assay: Induction of cell cycle arrest in human NCI-H1650 cells assessed as accumulation of cells in S phase measured at 1 uM for 24 hrs by annexin V-PI staining based flow cytometric analysis (reference value: 29.97%); type: functional
[21] = system: NCI-H1650; assay: Induction of cell cycle arrest in human NCI-H1650 cells assessed as accumulation of cells in G1 phase measured at 2 uM for 24 hrs by annexin V-PI staining based flow cytometric analysis (reference value: 52.04%); type: functional
[22] = system: NCI-H1650; assay: Induction of cell cycle arrest in human NCI-H1650 cells assessed as accumulation of cells in G2 phase measured at 2 uM for 24 hrs by annexin V-PI staining based flow cytometric analysis (reference value: 18.00%); type: functional
[23] = system: NCI-H1650; assay: Induction of cell cycle arrest in human NCI-H1650 cells assessed as accumulation of cells in S phase measured at 2 uM for 24 hrs by annexin V-PI staining based flow cytometric analysis (reference value: 29.97%); type: functional
[24] = system: NCI-H1650; assay: Induction of cell cycle arrest in human NCI-H1650 cells assessed as accumulation of cells in G1 phase measured at 4 uM for 24 hrs by annexin V-PI staining based flow cytometric analysis (reference value: 52.04%); type: functional
[25] = system: NCI-H1650; assay: Induction of cell cycle arrest in human NCI-H1650 cells assessed as accumulation of cells in G2 phase measured at 4 uM for 24 hrs by annexin V-PI staining based flow cytometric analysis (reference value: 18.00%); type: functional
[26] = system: NCI-H1650; assay: Induction of cell cycle arrest in human NCI-H1650 cells assessed as accumulation of cells in S phase measured at 4 uM for 24 hrs by annexin V-PI staining based flow cytometric analysis (reference value: 29.97%); type: functional
[27] = system: NCI-H1650; assay: Antitumor activity against human NCI-H1650 cells xenografted in mouse assessed as reduction of tumor weight at 10 mg/kg, po for 21 days relative to control; type: ADME, organism-based; design: scale not given: the % may be the effect or the level left; conditions: in vivo, 504 h, time 21 day
[28] = system: NCI-H1650; assay: Antitumor activity against human NCI-H1650 cells xenografted in mouse assessed as reduction of tumor weight at 20 mg/kg, po for 21 days relative to control; type: ADME, organism-based; design: scale not given: the % may be the effect or the level left; conditions: in vivo, 504 h, time 21 day
[29] = Toxicity in mouse xenografted with human NCI-H1650 cells assessed as change in body weight at 10 to 20 mg/kg, po measured every 4 days for 21 days; type: organism-based; conditions: in vivo, 504 h, dose 10-20 mg/kg, time 21 day
[30] = Toxicity in mouse xenografted with human NCI-H1650 cells assessed as increase in survival rate at 10 to 20 mg/kg, po treated for 21 days measured every 10 days for 50 days; type: organism-based; conditions: in vivo, 504 h, dose 10-20 mg/kg, time 21 day
[31] = system: MGC-803; assay: cells; conditions: Homo sapiens, MGC-803, 72 h
Description: Antiproliferative activity against human MGC-803 cells incubated for 72 hrs by MTT assay

[32] = system: MGC-803; assay: cells; conditions: Homo sapiens, MGC-803, 72 h; remark: listed apart in the source
Description: Antiproliferative activity against human MGC-803 LSD knock out cells incubated for 72 hrs by MTT assay

[33] = system: SGC-7901; assay: cells; conditions: Homo sapiens, SGC-7901, 72 h
Description: Antiproliferative activity against human SGC-7901 cells incubated for 72 hrs by MTT assay

[34] = system: GES1; assay: cells; conditions: Homo sapiens, GES1, 72 h
Description: Antiproliferative activity against human GES1 cells incubated for 72 hrs by MTT assay

[35] = system: MCF7; assay: cells; conditions: Homo sapiens, MCF7, 72 h
Description: Antiproliferative activity against human MCF7 cells incubated for 72 hrs by MTT assay

[36] = system: NCI-H1650; assay: cells; conditions: Homo sapiens, NCI-H1650, 72 h
Description: Antiproliferative activity against human NCI-H1650 cells incubated for 72 hrs by MTT assay

[37] = system: A549; assay: cells; conditions: Homo sapiens, A549, 72 h
Description: Antiproliferative activity against human A549 cells incubated for 72 hrs by MTT assay

[38] = system: NCI-H460; assay: cells; conditions: Homo sapiens, NCI-H460, 72 h
Description: Antiproliferative activity against human NCI-H460 cells incubated for 72 hrs by MTT assay

[39] = system: PC-3; assay: cells; conditions: Homo sapiens, PC-3, 72 h
Description: Antiproliferative activity against human PC-3 cells incubated for 72 hrs by MTT assay

[40] = system: ECa-109 cell line; assay: cells; conditions: Homo sapiens, ECa-109, 72 h
Description: Antiproliferative activity against human EC109 cells incubated for 72 hrs by MTT assay

Question: What does the source list for `CCCSc1nc(Oc2c(OC)cc(CN[C@@H]3C[C@H]3c3ccccc3)cc2OC)c2nnn(Cc3cccc(Cl)c3)c2n1`?
Answer: inhibition at 1 h, 1 µM [1]: 25.5%; inhibition at 1 h, 1 µM [2]: 52%; viability at 1 µM [3]: 56.1%; Activity [4]: 40.3%; Activity [5]: 3.6%; Activity [6]: 0.022%; viability at 2 µM [7]: 55.4%; Activity [8]: 38.5%; Activity [9]: 6.02%; Activity [10]: 0.138%; viability at 4 µM [11]: 54.3%; Activity [12]: 38.4%; Activity [13]: 7.32%; Activity [14]: 0.041%; Activity [15]: 43.9%; Activity [16]: 44.5%; Activity [17]: 45.7%; Activity [18]: 51.44%; Activity [19]: 15.24%; Activity [20]: 33.32%; Activity [21]: 49.59%; Activity [22]: 10.6%; Activity [23]: 39.81%; Activity [24]: 48.98%; Activity [25]: 7.76%; Activity [26]: 43.26%; Activity [27]: 41.5%; Activity [28]: 64%; Activity [29]: Non-Toxic; Activity [30]: Non-Toxic; IC50 [31]: 5.1 µM; IC50 [32]: > 20 µM; IC50 [33]: 9.5 µM; IC50 [34]: > 20 µM; IC50 [35]: 13.4 µM; IC50 [36]: 4.3 µM; IC50 [37]: 7.9 µM; IC50 [38]: 13.6 µM; IC50 [39]: 7.5 µM; IC50 [40]: 15.2 µM
